Results reported in US12398132B2, “Derivatives of 4-(imidazo[1,2-a]pyridin-3-yl)-n-(pyridinyl)pyrimidin-2-amine as therapeutic agents” (AUCENTRA THERAPEUTICS PTY LTD, priority 2019, dated 2025).
Read-outs that look alike come from different tables or passages of the source.

Key:
[1] = test system: MV-4-11; assay: Proliferation assay (resazurin/MTT), MV-4-11; format: cell-based; settings: Homo sapiens, MV4-11, read-out: 72 h Growth inhibition GI50, MV-4-11 cells
[2] = molecular target: T1, FLT3(ITD) (Homo sapiens, UniProt P36888); assay: ADP Glo kinase assay, FLT3(ITD); format: biochemical; settings: apparent Ki calculated from Km (ATP) and IC50, read-out: FLT3 inhibition Ki
T1 sequence (P36888 1-993): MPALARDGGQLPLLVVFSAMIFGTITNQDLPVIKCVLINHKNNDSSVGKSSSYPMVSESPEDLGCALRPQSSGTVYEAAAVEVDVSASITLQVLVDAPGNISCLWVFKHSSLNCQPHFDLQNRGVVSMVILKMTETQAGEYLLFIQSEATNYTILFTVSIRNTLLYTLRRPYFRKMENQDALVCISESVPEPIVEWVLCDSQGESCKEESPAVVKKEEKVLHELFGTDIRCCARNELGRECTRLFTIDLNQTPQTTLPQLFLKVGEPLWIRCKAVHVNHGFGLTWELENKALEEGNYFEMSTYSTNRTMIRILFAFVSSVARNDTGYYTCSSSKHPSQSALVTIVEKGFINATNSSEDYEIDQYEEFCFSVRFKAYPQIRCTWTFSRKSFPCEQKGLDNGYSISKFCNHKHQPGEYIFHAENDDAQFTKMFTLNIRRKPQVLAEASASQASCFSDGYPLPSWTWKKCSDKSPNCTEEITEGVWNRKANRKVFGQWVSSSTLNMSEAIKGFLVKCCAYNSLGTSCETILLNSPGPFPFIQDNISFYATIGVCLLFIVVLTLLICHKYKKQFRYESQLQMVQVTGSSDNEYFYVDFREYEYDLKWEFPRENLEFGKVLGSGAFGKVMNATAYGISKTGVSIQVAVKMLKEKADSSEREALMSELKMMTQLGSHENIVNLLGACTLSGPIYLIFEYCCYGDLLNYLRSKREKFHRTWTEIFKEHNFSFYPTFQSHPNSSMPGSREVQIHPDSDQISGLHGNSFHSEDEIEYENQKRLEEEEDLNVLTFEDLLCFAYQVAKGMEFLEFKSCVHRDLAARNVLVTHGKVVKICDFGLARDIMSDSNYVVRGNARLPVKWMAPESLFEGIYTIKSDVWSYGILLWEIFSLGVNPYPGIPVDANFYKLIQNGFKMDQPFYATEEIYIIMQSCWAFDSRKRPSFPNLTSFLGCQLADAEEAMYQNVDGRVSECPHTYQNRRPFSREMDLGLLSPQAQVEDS
Description: (§1) Inhibition of FLT3(WT), FLT3(ITD) and FLT3(D835Y) and CDKs were determined using ADP Glo Kinase assays (Promega Corporation, Madison, WI, USA). […] The kinase reactions are run for an optimised time period (FLT3-WT: 120 min, FLT3-ITD: 80 min, FLT3-D835Y: 100 min) at room temperature and then the reaction was stopped by adding 5 μL of ADP Glo reagent. […] Positive and negative controls were performed in 0.5% DMSO in the presence and absence of each FLT3 kinase, respectively. […] Half-maximal inhibition (IC50) values were calculated using a 4-parameter logistic non-linear regression model with Graphpad prism (Version 6.0). Apparent inhibition constants (Ki) values were calculated from Km (ATP) and IC50 values for the respective kinases.

[3] = test system: U937; assay: Proliferation assay (resazurin/MTT), U937; format: cell-based; settings: Homo sapiens, U-937, read-out: 72 h Growth inhibition GI50, U937 cells
[4] = molecular target: CDK4/D1 (Homo sapiens, UniProt P11802); assay: ADP Glo kinase assay, CDK4/D1; format: biochemical; settings: CDK4D1; for remaining activity at 1 µM: compound at 1 μM (values marked *), read-out: residual enzymatic activity (%) at 1 μM*; for remaining activity at 10 µM: compound at 10 μM, read-out: residual enzymatic activity (%) at 10 μM
[5] = molecular target: CDK1B (Homo sapiens, UniProt P06493)
[6] = molecular target: CDK7HMAT1 (Homo sapiens, UniProt P50613);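 further: kinase activity measured with an ADP-Glo luminescent kinase assay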
Description: as §1

[7] = molecular target: CDK2E1 (Homo sapiens, UniProt P24941); settings: 1 µM
[8] = molecular target: CDK6/D3 (Homo sapiens, UniProt Q00534); assay: ADP Glo kinase assay, CDK6/D3; format: biochemical; settings: CDK6D3; for remaining activity at 1 µM: compound at 1 μM (values marked *), read-out: residual enzymatic activity (%) at 1 μM*; for remaining activity at 10 µM: compound at 10 μM, read-out: residual enzymatic activity (%) at 10 μM
[9] = molecular target: CDK9/CyclinT1 (Homo sapiens, UniProt P50750); assay: ADP Glo kinase assay, CDK9/CyclinT1; format: biochemical; settings: CDK9T1; for remaining activity at 1 µM: compound at 1 μM (values marked *), read-out: residual enzymatic activity (%) at 1 μM*; for Ki: apparent Ki calculated from Km (ATP) and IC50, read-out: CDK inhibition Ki
Chain of CDK9/CyclinT1 (P50750 whole entry, species assumed): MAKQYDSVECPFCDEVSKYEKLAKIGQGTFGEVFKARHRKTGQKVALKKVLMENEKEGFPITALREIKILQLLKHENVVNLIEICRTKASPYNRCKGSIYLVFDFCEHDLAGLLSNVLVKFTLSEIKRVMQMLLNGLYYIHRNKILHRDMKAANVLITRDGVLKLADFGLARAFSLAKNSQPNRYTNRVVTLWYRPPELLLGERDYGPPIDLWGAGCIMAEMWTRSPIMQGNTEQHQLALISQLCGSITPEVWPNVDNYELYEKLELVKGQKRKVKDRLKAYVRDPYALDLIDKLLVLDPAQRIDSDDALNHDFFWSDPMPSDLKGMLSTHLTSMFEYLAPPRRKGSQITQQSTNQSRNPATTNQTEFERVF
Chain of CDK9/CyclinT1 (O60563 whole entry partner, species assumed): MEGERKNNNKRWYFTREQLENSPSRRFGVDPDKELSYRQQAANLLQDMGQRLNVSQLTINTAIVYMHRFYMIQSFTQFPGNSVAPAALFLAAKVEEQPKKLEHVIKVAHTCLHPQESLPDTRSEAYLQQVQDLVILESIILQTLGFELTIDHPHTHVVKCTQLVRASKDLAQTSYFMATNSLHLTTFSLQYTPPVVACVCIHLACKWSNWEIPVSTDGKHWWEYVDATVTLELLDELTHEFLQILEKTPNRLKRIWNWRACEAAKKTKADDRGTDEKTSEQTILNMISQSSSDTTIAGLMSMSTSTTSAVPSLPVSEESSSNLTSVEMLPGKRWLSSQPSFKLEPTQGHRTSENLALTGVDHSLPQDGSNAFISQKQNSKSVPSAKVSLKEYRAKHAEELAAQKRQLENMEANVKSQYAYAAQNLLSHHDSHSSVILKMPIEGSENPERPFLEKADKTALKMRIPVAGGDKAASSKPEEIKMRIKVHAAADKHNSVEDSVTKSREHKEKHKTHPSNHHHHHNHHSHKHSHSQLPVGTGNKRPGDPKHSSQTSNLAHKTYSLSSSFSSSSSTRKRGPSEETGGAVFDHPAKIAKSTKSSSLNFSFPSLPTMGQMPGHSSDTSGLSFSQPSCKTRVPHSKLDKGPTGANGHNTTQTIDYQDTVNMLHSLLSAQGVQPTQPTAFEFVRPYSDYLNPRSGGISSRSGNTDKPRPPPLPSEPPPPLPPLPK
Description: Inhibition of FLT3(WT), FLT3(ITD) and FLT3(D835Y) and CDKs were determined using ADP Glo Kinase assays (Promega Corporation, Madison, WI, USA). […] Similarly, kinase reaction for CDK4/D1 and CDK6/D3 was performed with reaction buffer (40 nM Tris base pH 7.5, 20 mM MgCl2, 0.4 mM DTT), 0.1 mg/ml BSA and RB-CTF substrate (retinoblastoma protein1 C-terminal fraction). For CDK9/CyclinT1, the kinase reaction was performed with the standard assay buffer and Kinase Dilution Buffer and RBER-IRStide substrate. Half-maximal inhibition (IC50) values were calculated using a 4-parameter logistic non-linear regression model with Graphpad prism (Version 6.0). Apparent inhibition constants (Ki) values were calculated from Km (ATP) and IC50 values for the respective kinases.

Chain of CDK4/D1 (P11802 whole entry, species assumed): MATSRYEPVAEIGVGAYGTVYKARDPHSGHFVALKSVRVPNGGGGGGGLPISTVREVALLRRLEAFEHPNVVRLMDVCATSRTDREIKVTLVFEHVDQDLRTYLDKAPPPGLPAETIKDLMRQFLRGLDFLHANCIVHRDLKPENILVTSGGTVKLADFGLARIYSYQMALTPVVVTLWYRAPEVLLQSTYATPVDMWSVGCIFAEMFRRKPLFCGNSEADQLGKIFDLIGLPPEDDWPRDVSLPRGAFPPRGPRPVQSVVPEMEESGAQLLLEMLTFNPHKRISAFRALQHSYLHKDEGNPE
Chain of CDK4/D1 (P24385 whole entry partner, species assumed): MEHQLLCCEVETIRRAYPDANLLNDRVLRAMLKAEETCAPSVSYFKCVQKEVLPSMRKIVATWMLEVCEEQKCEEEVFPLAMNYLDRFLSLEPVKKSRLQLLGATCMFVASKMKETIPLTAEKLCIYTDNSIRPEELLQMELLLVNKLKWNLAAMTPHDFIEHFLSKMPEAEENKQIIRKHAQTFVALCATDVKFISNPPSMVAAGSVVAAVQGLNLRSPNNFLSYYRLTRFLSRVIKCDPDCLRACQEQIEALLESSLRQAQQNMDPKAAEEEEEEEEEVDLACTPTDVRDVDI
Chain of CDK7HMAT1 (P50613 whole entry): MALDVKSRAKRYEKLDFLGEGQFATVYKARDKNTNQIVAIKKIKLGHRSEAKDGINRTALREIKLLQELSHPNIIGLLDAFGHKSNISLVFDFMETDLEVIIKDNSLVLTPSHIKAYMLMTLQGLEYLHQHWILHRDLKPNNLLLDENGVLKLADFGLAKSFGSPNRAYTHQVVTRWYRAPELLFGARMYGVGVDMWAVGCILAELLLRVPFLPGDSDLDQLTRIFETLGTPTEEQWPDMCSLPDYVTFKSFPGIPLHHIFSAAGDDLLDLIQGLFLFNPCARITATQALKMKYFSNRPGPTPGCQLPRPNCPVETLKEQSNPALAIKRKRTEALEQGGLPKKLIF
Chain of CDK7HMAT1 (P51946 whole entry partner): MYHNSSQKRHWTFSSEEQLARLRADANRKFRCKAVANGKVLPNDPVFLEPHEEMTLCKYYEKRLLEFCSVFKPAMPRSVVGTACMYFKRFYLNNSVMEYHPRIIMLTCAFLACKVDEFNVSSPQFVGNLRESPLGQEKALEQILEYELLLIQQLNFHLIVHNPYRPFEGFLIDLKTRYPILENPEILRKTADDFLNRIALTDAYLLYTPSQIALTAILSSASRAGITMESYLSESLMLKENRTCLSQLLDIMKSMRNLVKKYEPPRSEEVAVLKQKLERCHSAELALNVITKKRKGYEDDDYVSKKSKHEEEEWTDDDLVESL
Chain of CDK7HMAT1 (P51948 whole entry partner): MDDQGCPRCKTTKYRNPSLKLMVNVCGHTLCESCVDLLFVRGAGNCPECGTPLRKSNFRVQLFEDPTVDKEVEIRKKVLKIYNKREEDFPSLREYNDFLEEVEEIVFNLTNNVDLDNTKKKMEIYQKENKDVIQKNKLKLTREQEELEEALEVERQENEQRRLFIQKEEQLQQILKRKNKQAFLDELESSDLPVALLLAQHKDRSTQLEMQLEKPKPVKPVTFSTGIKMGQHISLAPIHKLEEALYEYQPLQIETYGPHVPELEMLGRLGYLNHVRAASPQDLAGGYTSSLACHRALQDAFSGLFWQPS
Chain of CDK6/D3 (Q00534 whole entry, species assumed): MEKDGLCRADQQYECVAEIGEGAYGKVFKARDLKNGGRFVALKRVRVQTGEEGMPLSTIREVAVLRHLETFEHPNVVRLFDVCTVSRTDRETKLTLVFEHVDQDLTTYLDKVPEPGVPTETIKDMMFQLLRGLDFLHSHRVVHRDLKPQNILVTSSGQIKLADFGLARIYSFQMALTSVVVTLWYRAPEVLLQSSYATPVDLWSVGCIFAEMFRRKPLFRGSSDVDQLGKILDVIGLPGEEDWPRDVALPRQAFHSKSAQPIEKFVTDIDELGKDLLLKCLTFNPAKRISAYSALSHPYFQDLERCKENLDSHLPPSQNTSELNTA
Chain of CDK6/D3 (P30281 whole entry partner, species assumed): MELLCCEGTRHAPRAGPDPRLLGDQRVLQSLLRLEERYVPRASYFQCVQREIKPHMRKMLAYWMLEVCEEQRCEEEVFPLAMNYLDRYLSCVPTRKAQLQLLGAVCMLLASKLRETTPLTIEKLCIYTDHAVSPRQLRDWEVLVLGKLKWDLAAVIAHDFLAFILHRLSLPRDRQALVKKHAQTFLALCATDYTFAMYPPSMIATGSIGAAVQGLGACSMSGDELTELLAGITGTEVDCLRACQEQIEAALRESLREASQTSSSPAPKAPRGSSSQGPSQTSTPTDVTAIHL
Chain of CDK1B (P06493 whole entry): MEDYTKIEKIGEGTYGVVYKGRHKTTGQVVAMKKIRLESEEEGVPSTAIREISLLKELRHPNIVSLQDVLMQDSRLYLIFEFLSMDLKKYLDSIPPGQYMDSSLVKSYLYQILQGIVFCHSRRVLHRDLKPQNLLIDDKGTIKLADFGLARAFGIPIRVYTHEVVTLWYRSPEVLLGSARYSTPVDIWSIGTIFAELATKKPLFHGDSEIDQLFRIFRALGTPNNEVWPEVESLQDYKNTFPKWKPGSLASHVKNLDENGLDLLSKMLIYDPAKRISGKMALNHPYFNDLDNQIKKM
Chain of CDK1B (P14635 whole entry partner): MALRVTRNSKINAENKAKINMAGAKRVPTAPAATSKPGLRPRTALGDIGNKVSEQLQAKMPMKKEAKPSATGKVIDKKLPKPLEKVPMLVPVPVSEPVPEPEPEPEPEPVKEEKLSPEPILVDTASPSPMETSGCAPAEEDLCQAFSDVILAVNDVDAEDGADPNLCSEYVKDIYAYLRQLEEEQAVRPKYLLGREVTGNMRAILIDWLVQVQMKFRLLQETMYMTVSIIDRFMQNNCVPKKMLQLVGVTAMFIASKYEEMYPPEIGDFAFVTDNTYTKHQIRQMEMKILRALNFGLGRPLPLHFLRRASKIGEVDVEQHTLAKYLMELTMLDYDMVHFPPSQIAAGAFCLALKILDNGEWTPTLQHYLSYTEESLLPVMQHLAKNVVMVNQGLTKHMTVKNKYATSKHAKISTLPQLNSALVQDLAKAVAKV

| SMILES | GI50 [1] | Ki [2] | GI50 [3] | activity [7] | further results |
| --- | --- | --- | --- | --- | --- |
| CC(=O)N1CCN(c2ccc(Nc3nccc(-c4cnc5ccc(-c6cnn(C7CCN(C(=O)OC(C)(C)C)CC7)c6)cn45)n3)nc2)CC1 [Cmpd 60, Tert-butyl 4-(4-(3-(2-((5-(4-acetylpiperazin-1-yl)pyridin-2-yl)amino)pyrimidin-4-yl)imidazo[1,2-a]pyridin-6-yl)-1H-pyrazol-1-yl)piperidine-1-carboxylate] | 19 nM | 84 nM | 243 nM | – | – |
| CC(=O)N1CCN(c2ccc(Nc3nccc(-c4cnc5ccc(-c6ccn(C)n6)cn45)n3)nc2)CC1 [Cmpd 58, 1-(4-(6-((4-(6-(1-Methyl-1H-pyrazol-3-yl)imidazo[1,2-a]pyridin-3-yl)pyrimidin-2-yl)amino)pyridin-3-yl)piperazin-1-yl)ethan-1-one] | 9 nM | 49 nM | 206 nM | – | – |
| CC(=O)N1CCN(c2ccc(Nc3nccc(-c4cnc5ccc(-c6cc[nH]n6)cn45)n3)nc2)CC1 [Cmpd 57, 1-(4-(6-((4-(6-(1H-Pyrazol-3-yl)imidazo[1,2-a]pyridin-3-yl)pyrimidin-2-yl)amino)pyridin-3-yl)piperazin-1-yl)ethan-1-one] | 4 nM | 6 nM | 728 nM | – | – |
| Cc1ccc(Nc2nccc(-c3cnc4ccccn34)n2)nc1 [Cmpd 55, 4-(Imidazo[1,2-a]pyridin-3-yl)-N-(5-methylpyridin-2-yl)pyrimidin-2-amine] | 49 nM | 44 nM | 471 nM | – | – |
| CC(C)(C)OC(=O)N1CC=C(c2ccc(Nc3nccc(-c4cnc5ccccn45)n3)nc2)CC1 [Cmpd 64, Tert-butyl 6-((4-(imidazo[1,2-a]pyridin-3-yl)pyrimidin-2-vi)amino)-3′,6′-dihydro-[3,4′-bipyridine]-1′(2′H)-carboxylate] | 152 nM | 308 nM | 367 nM | – | – |
| CN(C)C1CCN(c2ccc(Nc3ncc(F)c(-c4cnc5ccc(-c6ccccc6)cn45)n3)nc2)CC1 [Cmpd 69, N-(5-(4-(Dimethylamino)piperidin-1-yl)pyridin-2-yl)-5-fluoro-4-(6-phenylimidazo[1,2-a]pyridin-3-yl)pyrimidin-2-amine] | 18 nM | 16 nM | 946 nM | – | – |
| CCN1CCN(Cc2ccc(Nc3ncc(F)c(-c4cnc5ccc(-c6ccccc6)cn45)n3)nc2)CC1 [Cmpd 68, N-(5-((4-Ethylpiperazin-1-yl)methyl)pyridin-2-yl)-5-fluoro-4-(6-phenylimidazo[1,2-a]pyridin-3-yl)pyrimidin-2-amine] | 117 nM | 70 nM | 600 nM | – | – |
| CC(=O)N1CCN(c2ccc(Nc3nccc(-c4cnc5ccc(-c6ccc(C)o6)cn45)n3)nc2)CC1 [Cmpd 61, 1-(4-(6-((4-(6-(5-Methylfuran-2-yl)imidazo[1,2-a]pyridin-3-yl)pyrimidin-2-yl)amino)pyridin-3-yl)piperazin-1-yl)ethan-1-one] | < 0.1 nM | 4 nM | 199 nM | – | – |
| CC(=O)N1CCN(c2ccc(Nc3nccc(-c4cnc5ccc(-c6cnn(C(F)F)c6)cn45)n3)nc2)CC1 [Cmpd 59] | 8 nM | 18 nM | 462 nM | – | – |
| CCC(=O)N1CCN(c2ccc(Nc3nccc(-c4cnc5ccccn45)n3)nc2)CC1 [Cmpd 56, 1-(4-(6-((4-(Imidazo[1,2-a]pyridin-3-yl)pyrimidin-2-yl)amino)pyridin-3-yl)piperazin-1-yl)propan-1-one] | 22 nM | 16 nM | 339 nM | – | – |
| CN1CCN(c2ccc(Nc3nccc(-c4cnc5ccc(-c6cccnc6)cn45)n3)nc2)CC1 [Cmpd 65, N-(5-(4-Methylpiperazin-1-yl)pyridin-2-yl)-4-(6-(pyridin-3-yl)imidazo[1,2-a]pyridin-3-yl)pyrimidin-2-amine] | 32 nM | 30 nM | 382 nM | – | – |
| CC(=O)N1CCN(c2ccc(Nc3nccc(-c4cnc5ccc(C6=CCN(C(=O)OC(C)(C)C)CC6)cn45)n3)nc2)CC1 [Cmpd 63, Tert-butyl 4-(3-(2-((5-(4-acetylpiperazin-1-yl)pyridin-2-yl)amino)pyrimidin-4-yl)imidazo[1,2-a]pyridin-6-yl)-3,6-dihydropyridine-1(2H)-carboxylate] | 35 nM | 132 nM | 436 nM | – | – |
| CC(=O)N1CCN(c2ccc(Nc3nccc(-c4cnc5ccc(-c6csc7ccccc67)cn45)n3)nc2)CC1 [Cmpd 35, 1-(4-(6-((4-(6-(Benzo[b]thiophen-3-yl)imidazo[1,2-a]pyridin-3-yl)pyrimidin-2-yl)amino)pyridin-3-yl)piperazin-1-yl)ethan-1-one] | 7 nM | – | > 10000 nM | 100% | remaining activity at 1 µM [4]: 77%; activity ([5]; 1 µM): 81%; activity ([6]; 1 µM): 81%; remaining activity at 1 µM [8]: 76%; remaining activity at 1 µM [9]: 91% |
| CC(=O)N1CCN(c2ccc(Nc3nccc(-c4cnc5ccc(-c6cccc7[nH]ccc67)cn45)n3)nc2)CC1 [Cmpd 36, 1-(4-(6-((4-(6-(1H-Indol-4-yl)imidazo[1,2-a]pyridin-3-yl)pyrimidin-2-yl)amino)pyridin-3-yl)piperazin-1-yl)ethan-1-one] | 12 nM | – | 1360 nM | 89% | remaining activity at 1 µM [4]: 58%; activity ([5]; 1 µM): 96%; activity ([6]; 1 µM): 96%; remaining activity at 1 µM [8]: 76%; remaining activity at 1 µM [9]: 99% |
| CC(=O)N1CCN(c2ccc(Nc3ncc(F)c(-c4cnc5ccc(C(F)(F)F)cn45)n3)nc2)CC1 [Cmpd 32, 1-(4-(6-((5-Fluoro-4-(6-(trifluoromethyl)imidazo[1,2-a]pyridin-3-yl)pyrimidin-2-yl)amino)pyridin-3-yl)piperazin-1-yl)ethan-1-one] | 24 nM | – | 821 nM | 65% | remaining activity at 1 µM [4]: 67%; activity ([5]; 1 µM): 93%; activity ([6]; 1 µM): 84%; remaining activity at 1 µM [8]: 70%; remaining activity at 1 µM [9]: 82% |
| CC(=O)N1CCN(c2ccc(Nc3nccc(-c4cnc5ccc(-c6cc7ccccc7s6)cn45)n3)nc2)CC1 [Cmpd 22, 1-(4-(6-((4-(6-(Benzo[b]thiophen-2-yl)imidazo[1,2-a]pyridin-3-yl)pyrimidin-2-yl)amino)pyridin-3-yl)piperazin-1-yl)ethan-1-one] | 2 nM | – | > 10000 nM | 83% | remaining activity at 10 µM [4]: 64%; activity ([5]; 10 µM): 100%; activity ([6]; 10 µM): 106%; remaining activity at 10 µM [8]: 102%; Ki [9]: > 5000 nM |
| CC(=O)N1CCN(c2ccc(Nc3nccc(-c4cnc5ccc(F)cn45)n3)nc2)CC1 [Cmpd 8, 1-(4-(6-((4-(6-Fluoroimidazo[1,2-a]pyridin-3-yl)pyrimidin-2-yl)amino)pyridin-3-yl)piperazin-1-yl)ethan-1-one] | 30 nM | – | 1410 nM | 59% | remaining activity at 10 µM [4]: 27%; activity ([5]; 10 µM): 27%; activity ([6]; 10 µM): 82%; remaining activity at 10 µM [8]: 40%; Ki [9]: 289 nM |
| CC(=O)N1CCN(c2ccc(Nc3nccc(-c4cnc5ccc(-c6ccsc6)cn45)n3)nc2)CC1 [Cmpd 26, 1-(4-(6-((4-(6-(Thiophen-3-yl)imidazo[1,2-a]pyridin-3-yl)pyrimidin-2-yl)amino)pyridin-3-yl)piperazin-1-yl)ethan-1-one] | 4 nM | – | 538 nM | 73% | remaining activity at 1 µM [4]: 73%; activity ([5]; 1 µM): 95%; activity ([6]; 1 µM): 83%; remaining activity at 1 µM [8]: 73%; remaining activity at 1 µM [9]: 36% |
